# In patent US20130131161A1, “METHODS AND COMPOSITIONS FOR CARDIOVASCULAR DISEASES AND CONDITIONS” (priority 2009, published 2013):
# System: Human umbilical vein endothelial cells (HUVECs)
# Experiment: eNOS activity analysis: NO, ONOO− and NO/ONOO− release from HUVECs of 50 genotyped donors in response to LA-419 (Example 2)
# Assay type: cell-based
# Details: LA-419 5 μM
# Experimental: Concurrent measurements of NO and ONOO^− were carried out with tandem electrochemical nanosensors combined into one working unit with a total diameter of 200-500 nm (FIG. 1). Their design was based on previously developed and well-characterized chemically modified carbon-fiber technology (Malinski and Taha, 1992; Lvovich and Scheeline, 1997). Each of the nanosensors was made by depositing a sensing material on the tip of a carbon fiber (length 4-5 μm, diameter 0.2-0.5 μm). The fibers were sealed with nonconductive epoxy and electrically connected to copper wires with conductive silver epoxy. A conductive film of polymeric nickel (II) tetrakis(3-methoxy-4-hydroxyphenyl)porphyrin for the NO-sensor and polymeric film of Mn (III) [2.2]paracyclophanylporphyrin was used for the ONOO^−-sensor.
# A module of NO/ONOO^− nanosensors (diameter 1-2 μm) with a platinum wire (0.1 mm) counter electrode and saturated calomel reference electrode (SCE) were applied. Differential pulse voltammetry (DPV) and amperometry were performed with a computer-based Gamry VFP600 multichannel potentiostat. DPV was used to measure the basal NO and ONOO^− concentrations, and amperometry was used to measure changes in NO and ONOO^− concentrations from its basal level with time. The DPV current at the peak potential characteristic for NO oxidation (0.65 V) and ONOO^− reduction (−0.45 V) was directly proportional to the local concentrations of these compounds in the immediate vicinity of the sensor. Linear calibration curves (current vs. concentration) were constructed for each sensor from 10 nM to 3 μM before and after measurements with aliquots of NO and ONOO^− standard solutions, respectively. The detection limit of the sensors was 1.0 nM.
# The quantification of each analyte (concentration in nM) was performed using a maximum current from amperograms and standard calibration curves. A reproducibility of measurements with nanosensors is relatively high (between 5-12%). […] The sensors were slowly raised 5±2 μm from the surface of a single endothelial cell. The eNOS agonist, calcium ionophore A23187 (CaI) as well as the different drugs were then added to the surrounding media at the cell surface with a nanoinjector that was also positioned by a computer controlled-micromanipulator.
# This example describes the genotype-specific response of the three major eNOS variants to 1 μM and 5 μM concentrations of LA-419. The three major genetic polymorphisms studied were the Glu298Asp variant (E298D or 894G→T) in exon 7 of […], the −786T→C variant in the promoter region, and the intron 4 polymorphism (VNTR). All of these variants have possible effects on the cardiovascular system and endothelial dysfunction. For this study, human umbilical vein endothelial cells (HUVECs) from 50 donors between 18 and 32 years of age were used.
# For the analysis several analysis techniques were employed. First, the effect of genotype on NO and ONOO^− release was explored within the different concentrations of LA-419 (control, 1 μM, 5 μM), calculated as the average peak release (nmols/L) of NO, ONOO^−, and NO/ONOO^−. The effect of genotype on the net increase in NO, ONOO^−, and NO/ONOO^− for LA-419 (1 μM and 5 μM) as compared to control was also measured. In addition, an analysis was done on the effect of genotype on the % change in NO, ONOO^−, and NO/ONOO^− production for LA-419 (1 μM and 5 μM), calculated as:
# % Change=[(avg. LA-419−avg. control)/(avg. control)]*100
# Finally, an evaluation was undertaken concerning the effect of genotype on the production of NO, ONOO^−, and NO/ONOO^− as the fold difference of control for LA-419 (1 μM and 5 μM), calculated as:
# Fold Difference=(avg. LA-419)/(avg. control)
# Within each calculation technique the results were compared for statistical significance using a non-parametric ANOVA Kruskal-Wallace test or a non-parametric Mann-Whitney U test. Statistical significance was set at a p-value <0.05 in a two-tailed distribution. […]
# [1] = HUVECs Intron 4 variant b/a, a/a, c/c
# [2] = HUVECs T-786C variant T/C & C/C
structure (smiles),measurement,setting,value
"CC(=O)SC1COC2C(O[N+](=O)[O-])COC12 (stereo not drawn) [LA-419, S-(6-Nitro-oxi-hexahydro-furo[3,2-b]furan-3-1-il)thioacetate]",Peak release ONOO− (mean ± sd),HUVECs G894T variant G/G,288.82 (78.22) nmols/L
same,"% Change Ratio, % Change NO/% Change ONOO− (mean ± sd)",HUVECs G894T variant G/T,−0.88 (0.60)
same,Net increase over control NO (mean ± sd),HUVECs G894T variant G/T,45.87 (19.24) nmols/L
same,Net increase over control NO/ONOO− (mean ± sd),HUVECs G894T variant G/T,−0.94 (0.88)
same,Net increase over control ONOO− (mean ± sd),HUVECs G894T variant G/T,−65.80 (26.77) nmols/L
same,Peak release NO (mean ± sd),HUVECs G894T variant G/T,400.63 (80.27) nmols/L
same,Peak release NO/ONOO− (mean ± sd),HUVECs G894T variant G/T,1.44 (0.49)
same,Peak release ONOO− (mean ± sd),HUVECs G894T variant G/T,300.15 (75.86) nmols/L
same,Net increase over control NO (mean ± sd),HUVECs G894T variant G/T & T/T,45.12 (21.46) nmols/L
same,Net increase over control NO/ONOO− (mean ± sd),HUVECs G894T variant G/T & T/T,−0.91 (0.90)
same,Net increase over control ONOO− (mean ± sd),HUVECs G894T variant G/T & T/T,−69.51 (27.46) nmols/L
same,Peak release NO (mean ± sd),HUVECs G894T variant G/T & T/T,398.42 (88.37) nmols/L
same,Peak release NO/ONOO− (mean ± sd),HUVECs G894T variant G/T & T/T,1.39 (0.53)
same,Peak release ONOO− (mean ± sd),HUVECs G894T variant G/T & T/T,314.55 (84.72) nmols/L
same,"% Change Ratio, % Change NO/% Change ONOO− (mean ± sd)",HUVECs G894T variant T/T,−0.80 (0.73)
same,Net increase over control NO (mean ± sd),HUVECs G894T variant T/T,42.40 (30.77) nmols/L
same,Net increase over control NO/ONOO− (mean ± sd),HUVECs G894T variant T/T,−0.78 (1.05)
same,Net increase over control ONOO− (mean ± sd),HUVECs G894T variant T/T,−82.87 (28.56) nmols/L
same,Peak release NO (mean ± sd),HUVECs G894T variant T/T,390.47 (124.39) nmols/L
same,Peak release NO/ONOO− (mean ± sd),HUVECs G894T variant T/T,1.21 (0.68)
same,Peak release ONOO− (mean ± sd),HUVECs G894T variant T/T,366.40 (103.55) nmols/L
same,Net increase over control NO (mean ± sd),HUVECs Intron 4 variant a/a,52.00 (16.74) nmols/L
same,Net increase over control NO/ONOO− (mean ± sd),HUVECs Intron 4 variant a/a,0.41 (0.19)
same,Net increase over control ONOO− (mean ± sd),HUVECs Intron 4 variant a/a,−63.78 (14.11) nmols/L
same,Peak release NO (mean ± sd),HUVECs Intron 4 variant a/a,438.33 (79.68) nmols/L
same,Peak release NO/ONOO− (mean ± sd),HUVECs Intron 4 variant a/a,1.48 (0.64)
same,Peak release ONOO− (mean ± sd),HUVECs Intron 4 variant a/a,331.22 (117.30) nmols/L
same,Net increase over control NO (mean ± sd),HUVECs Intron 4 variant b/a,54.53 (23.50) nmols/L
same,Net increase over control NO/ONOO− (mean ± sd),HUVECs Intron 4 variant b/a,0.45 (0.22)
same,Net increase over control ONOO− (mean ± sd),HUVECs Intron 4 variant b/a,−72.30 (25.81) nmols/L
same,Peak release NO (mean ± sd),HUVECs Intron 4 variant b/a,375.20 (81.45) nmols/L
same,Peak release NO/ONOO− (mean ± sd),HUVECs Intron 4 variant b/a,1.42 (0.61)
same,Peak release ONOO− (mean ± sd),HUVECs Intron 4 variant b/a,295.73 (85.11) nmols/L
same,Net increase over control NO (mean ± sd),[1],47.30 (22.42) nmols/L
same,Net increase over control NO/ONOO− (mean ± sd),[1],0.44 (0.20)
same,Net increase over control ONOO− (mean ± sd),[1],−72.31 (23.65) nmols/L
same,Peak release NO (mean ± sd),[1],392.83 (80.05) nmols/L
same,Peak release NO/ONOO− (mean ± sd),[1],1.43 (0.57)
same,Peak release ONOO− (mean ± sd),[1],305.67 (86.01) nmols/L
same,Net increase over control NO (mean ± sd),HUVECs Intron 4 variant b/b,47.30 (22.42) nmols/L
same,Net increase over control NO/ONOO− (mean ± sd),HUVECs Intron 4 variant b/b,0.43 (0.20)
same,Net increase over control ONOO− (mean ± sd),HUVECs Intron 4 variant b/b,−70.32 (30.56) nmols/L
same,Peak release NO (mean ± sd),HUVECs Intron 4 variant b/b,400.83 (81.57) nmols/L
same,Peak release NO/ONOO− (mean ± sd),HUVECs Intron 4 variant b/b,1.46 (0.51)
same,Peak release ONOO− (mean ± sd),HUVECs Intron 4 variant b/b,298.99 (79.66) nmols/L
same,Net increase over control NO (mean ± sd),HUVECs Intron 4 variant c/c,64.00 (0) nmols/L
same,Net increase over control NO/ONOO− (mean ± sd),HUVECs Intron 4 variant c/c,0.46 (0)
same,Net increase over control ONOO− (mean ± sd),HUVECs Intron 4 variant c/c,−98.00 (0) nmols/L
same,Peak release NO (mean ± sd),HUVECs Intron 4 variant c/c,432.67 (0) nmols/L
same,Peak release NO/ONOO− (mean ± sd),HUVECs Intron 4 variant c/c,1.32 (0)
same,Peak release ONOO− (mean ± sd),HUVECs Intron 4 variant c/c,328.33 (0) nmols/L
same,"% Change Ratio, % Change NO/% Change ONOO− (mean ± sd)",HUVECs T-786C variant C/C,−0.62 (0.39)
same,Net increase over control NO (mean ± sd),HUVECs T-786C variant C/C,38.00 (17.39) nmols/L
same,Net increase over control NO/ONOO− (mean ± sd),HUVECs T-786C variant C/C,−0.52 (0.36)
same,Net increase over control ONOO− (mean ± sd),HUVECs T-786C variant C/C,−82.58 (26.16) nmols/L
same,Peak release NO (mean ± sd),HUVECs T-786C variant C/C,370.17 (86.78) nmols/L
same,Peak release NO/ONOO− (mean ± sd),HUVECs T-786C variant C/C,1.32 (0.71)
same,Peak release ONOO− (mean ± sd),HUVECs T-786C variant C/C,322.33 (110.70) nmols/L
same,"% Change Ratio, % Change NO/% Change ONOO− (mean ± sd)",HUVECs T-786C variant T/C,−0.81 (0.56)
same,Net increase over control NO (mean ± sd),HUVECs T-786C variant T/C,47.26 (23.70) nmols/L
same,Net increase over control NO/ONOO− (mean ± sd),HUVECs T-786C variant T/C,−0.86 (0.80)
same,Net increase over control ONOO− (mean ± sd),HUVECs T-786C variant T/C,−65.86 (23.41) nmols/L
same,Peak release NO (mean ± sd),HUVECs T-786C variant T/C,396.81 (95.72) nmols/L
same,Peak release NO/ONOO− (mean ± sd),HUVECs T-786C variant T/C,1.41 (0.56)
same,Peak release ONOO− (mean ± sd),HUVECs T-786C variant T/C,310.97 (82.59) nmols/L
same,Net increase over control NO (mean ± sd),[2],45.89 (22.83) nmols/L
same,Net increase over control NO/ONOO− (mean ± sd),[2],−0.81 (0.76)
same,Net increase over control ONOO− (mean ± sd),[2],−68.33 (24.07) nmols/L
same,Peak release NO (mean ± sd),[2],392.86 (93.35) nmols/L
same,Peak release NO/ONOO− (mean ± sd),[2],1.39 (0.57)
same,Peak release ONOO− (mean ± sd),[2],312.65 (84.87) nmols/L
same,"% Change Ratio, % Change NO/% Change ONOO− (mean ± sd)",HUVECs T-786C variant T/T,−0.90 (0.47)
same,Net increase over control NO (mean ± sd),HUVECs T-786C variant T/T,55.91 (19.06) nmols/L
same,Net increase over control NO/ONOO− (mean ± sd),HUVECs T-786C variant T/T,−0.95 (0.67)
same,Net increase over control ONOO− (mean ± sd),HUVECs T-786C variant T/T,−76.48 (33.23) nmols/L
same,Peak release NO (mean ± sd),HUVECs T-786C variant T/T,405.83 (58.51) nmols/L
same,Peak release NO/ONOO− (mean ± sd),HUVECs T-786C variant T/T,1.52 (0.45)
same,Peak release ONOO− (mean ± sd),HUVECs T-786C variant T/T,286.47 (76.65) nmols/L
same,"% increase in peak NO generation, range within genotype groups",Table u1,11.6 to 17.4%
same,"increase in NO/OONO− ratio, range over all genotypes",Table u3,37-53%
same,peak release of NO versus control,all genotypes (Table b1),increase
same,"greater net increase in NO, major allele variant vs minor allele carriers","exon 7, p 0.10",22%
same,"greater net increase in NO, major allele variant vs minor allele carriers","promoter, p 0.12",22%
